This note sets out measurements from patent US7511041B2, “Fused azole-pyrimidine derivatives” (Bayer Pharmaceuticals Corporation, priority 2002, dated 2009).

Series [1] has as its target T1, Recombinant human PI3Kγ (full length human PI3K p110γ) (Homo sapiens, UniProt P48736).
T1 construct: full length human PI3K p110γ fused with a His6-tag at the C-terminus; His6 (C); purchased ALEXIS BIOCHEMICALS #201-055-C010; host or cells: S. frugiperda 9 insect cells
Briefly: Kinase assay of PI3Kγ (solid-phase lipid kinase assay). It counts as biochemical. The following applies: in vitro PI3K-γ inhibitory activity, class symbols; read-out: in vitro PI3K-gamma.

T1 sequence (P48736 whole entry, the tested form may be a part): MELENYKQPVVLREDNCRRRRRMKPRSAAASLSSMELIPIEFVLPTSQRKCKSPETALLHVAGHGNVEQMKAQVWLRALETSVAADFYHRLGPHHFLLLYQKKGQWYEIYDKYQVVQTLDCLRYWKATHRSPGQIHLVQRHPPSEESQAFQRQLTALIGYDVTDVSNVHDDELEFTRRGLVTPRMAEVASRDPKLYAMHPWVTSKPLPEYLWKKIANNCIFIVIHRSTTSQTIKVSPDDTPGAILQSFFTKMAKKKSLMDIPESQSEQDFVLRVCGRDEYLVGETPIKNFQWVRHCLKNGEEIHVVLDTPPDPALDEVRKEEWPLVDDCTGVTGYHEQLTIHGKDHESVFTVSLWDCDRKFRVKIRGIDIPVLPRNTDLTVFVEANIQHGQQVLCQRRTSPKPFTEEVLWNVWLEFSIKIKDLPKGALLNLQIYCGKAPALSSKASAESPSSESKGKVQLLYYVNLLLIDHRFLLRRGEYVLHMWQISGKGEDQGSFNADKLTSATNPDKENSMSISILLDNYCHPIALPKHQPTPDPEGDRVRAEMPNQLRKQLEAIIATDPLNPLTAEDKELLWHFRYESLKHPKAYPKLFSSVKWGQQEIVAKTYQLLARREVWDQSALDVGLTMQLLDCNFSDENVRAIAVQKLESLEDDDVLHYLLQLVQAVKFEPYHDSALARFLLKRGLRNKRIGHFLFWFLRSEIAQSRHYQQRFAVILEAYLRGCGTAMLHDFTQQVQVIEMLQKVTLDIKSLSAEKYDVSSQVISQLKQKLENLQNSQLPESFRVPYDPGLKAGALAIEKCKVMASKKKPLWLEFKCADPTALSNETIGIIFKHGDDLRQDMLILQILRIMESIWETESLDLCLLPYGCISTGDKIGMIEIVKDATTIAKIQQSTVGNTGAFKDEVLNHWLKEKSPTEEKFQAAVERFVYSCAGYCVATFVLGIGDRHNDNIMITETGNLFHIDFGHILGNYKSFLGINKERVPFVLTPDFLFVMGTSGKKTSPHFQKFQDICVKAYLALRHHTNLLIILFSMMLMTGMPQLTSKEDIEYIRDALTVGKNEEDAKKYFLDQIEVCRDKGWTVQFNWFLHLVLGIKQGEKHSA

Regarding `Cc1cccc2c1N=C(NC(=O)c1ccc3[nH]cnc3c1)N1CCN=C21` [Example 2-109], the melting point was over 290 °C. In series [1], the IC50 was under 100 nM.

`Cl.O=C(NC1=Nc2c(cccc2C(F)(F)F)C2=NCCN12)c1cccnc1` [Example 2-111] came in with a melting point of 263 °C. Besides, the IC50 in series [1] was under 100 nM.

In turn, `O=C(NC1=Nc2c(cccc2C(F)(F)F)C2=NCCN12)c1ccc2[nH]cnc2c1` [Example 2-112] came in with a melting point of 286 °C. In addition, the IC50 in series [1] is under 100 nM.

Take `COc1cccc2c1N=C(NC(=O)c1cccnc1)N1CCN=C21` [Example 2-114]: the melting point was 110 °C. In addition, in series [1], the IC50 is under 100 nM.

`COc1cccc2c1N=C(NC(=O)c1cccnc1C)N1CCN=C21` [Example 2-116]: the melting point lay within 204 to 205 °C. In addition, the IC50 in series [1] was 100 to 500 nM.

Take `COc1cccc2c1N=C(NC(=O)c1cccnc1C)N1CCN=C21.Cl` [Example 2-117]: the melting point is 251 °C (dec.). Besides, the IC50 in series [1] is under 100 nM.

Take `COc1cccc2c1N=C(NC(=O)c1cccnc1Cl)N1CCN=C21` [Example 2-118]: the melting point is 185 °C (dec.). In series [1], the IC50 was under 100 nM.

For the compound `COc1cccc2c1N=C(NC(=O)c1cnccc1C)N1CCN=C21.Cl` [Example 2-120], the melting point was 220 °C (dec.). For the same compound, the IC50 in series [1] was under 100 nM.

`COc1cccc2c1N=C(NC(=O)c1cnccc1C(F)(F)F)N1CCN=C21` [Example 2-121] showed a melting point of 144 to 145 °C. In addition, the IC50 in series [1] fell in the range of 100 to 500 nM.

In the case of `COc1cccc2c1N=C(NC(=O)c1cncc(O)c1)N1CCN=C21.Cl` [Example 2-122], the melting point was 285 °C (dec.). Further, the IC50 in series [1] is under 100 nM.

Take `COc1cccc2c1N=C(NC(=O)c1ccc(N)nc1)N1CCN=C21.Cl` [Example 2-123]: the melting point was determined as 296 °C. Further, the IC50 in series [1] is under 100 nM.

As for `COc1cccc2c1N=C(NC(=O)c1ccc3[nH]cnc3c1)N1CCN=C21` [Example 2-124], the melting point was 287 °C. The IC50 in series [1] is under 100 nM.

`COc1cccc2c1N=C(NC(=O)c1cc3cccnc3nc1C)N1CCN=C21` [Example 2-126]: the melting point lay within 183 to 184 °C. Further, the IC50 in series [1] was under 100 nM.

Regarding `COc1cccc2c1N=C(NC(=O)c1cc3cccnc3nc1C(F)(F)F)N1CCN=C21` [Example 2-128], the melting point was 214 °C (dec.). Also, the IC50 in series [1] was under 100 nM.

Turning to `O=C(NC1=Nc2ccccc2C2=NCCN12)c1cccnc1.O=C(O)C(F)(F)F` [Example 2-130], the melting point lay in the range of 237 to 239 °C. The IC50 in series [1] is under 100 nM.

On to `Cc1ncccc1C(=O)NC1=Nc2ccccc2C2=NCCN12` [Example 2-131], for which the melting point lay in the range of 193 to 194 °C. In addition, the IC50 in series [1] was in the range of 100 to 500 nM.

Take `Nc1ncccc1C(=O)NC1=Nc2ccccc2C2=NCCN12` [Example 2-133]: the melting point was 215 °C (dec.). Moreover, the IC50 in series [1] was 100 to 500 nM.

For the compound `O=C(NC1=Nc2ccccc2C2=NCCN12)c1cccnc1Cl` [Example 2-134], the melting point lay within 198 to 199 °C. The IC50 in series [1] was under 100 nM.

Take `Cl.O=C(NC1=Nc2ccccc2C2=NCCN12)c1cccnc1Cl` [Example 2-135]: the melting point is 340 °C (dec.). For the same compound, the IC50 in series [1] was in the range of 100 to 500 nM.

In turn, `Cc1ccncc1C(=O)NC1=Nc2ccccc2C2=NCCN12` [Example 2-136] had a melting point of 194 to 195 °C. Besides, in series [1], the IC50 was 100 to 500 nM.

Consider `O=C(NC1=Nc2ccccc2C2=NCCN12)c1cncc(O)c1` [Example 2-138], for which the melting point is 273 °C (dec.). In series [1], the IC50 is under 100 nM.

Consider `COc1cncc(C(=O)NC2=Nc3ccccc3C3=NCCN23)c1` [Example 2-140], for which the melting point was 219 °C (dec.). Besides, the IC50 in series [1] fell in the range of 100 to 500 nM.

`O=C(O)c1cncc(C(=O)NC2=Nc3ccccc3C3=NCCN23)c1` [Example 2-142] showed a melting point of 358 to 359 °C. Besides, in series [1], the IC50 was 100 to 500 nM.

For `CS(=O)(=O)Nc1cncc(C(=O)NC2=Nc3ccccc3C3=NCCN23)c1` [Example 2-143], the melting point is 265 to 269 °C. The IC50 in series [1] is under 100 nM.

Turning to `Nc1cncc(C(=O)NC2=Nc3ccccc3C3=NCCN23)c1` [Example 2-144], the melting point fell in the range of 263 to 266 °C. In series [1], the IC50 is under 100 nM.

Consider `Nc1cncc(C(=O)NC2=Nc3ccccc3C3=NCCN23)c1.O=C(O)C(F)(F)F` [Example 2-145], for which the melting point is 220 °C (dec.). The IC50 in series [1] was in the range of 100 to 500 nM.

As for `CN(C)/C=N/c1cncc(C(=O)NC2=Nc3ccccc3C3=NCCN23)c1` [Example 2-146], the melting point is 219 °C (dec.). Besides, the IC50 in series [1] was 100 to 500 nM.

`Cc1ccc(C(=O)NC2=Nc3ccccc3C3=NCCN23)cn1` [Example 2-147] displayed a melting point of 195 to 196 °C. Moreover, in series [1], the IC50 was under 100 nM.

On to `Nc1ccc(C(=O)NC2=Nc3ccccc3C3=NCCN23)cn1` [Example 2-149], for which the melting point is over 300 °C. In series [1], the IC50 is under 100 nM.

On to `CC(=O)Nc1ccc(C(=O)NC2=Nc3ccccc3C3=NCCN23)cn1` [Example 2-151], for which the melting point was 320 °C (dec.). Moreover, in series [1], the IC50 was under 100 nM.

In the case of `CNc1ccc(C(=O)NC2=Nc3ccccc3C3=NCCN23)cn1` [Example 2-153], the melting point is 196 to 197 °C. In addition, the IC50 in series [1] fell in the range of 100 to 500 nM.

For the compound `Cl.O=C(NC1=Nc2ccccc2C2=NCCN12)c1ccc(Cl)nc1` [Example 2-155], the melting point is 324 °C (dec.). The IC50 in series [1] was in the range of 100 to 500 nM.

`Cc1ccc(C(=O)NC2=Nc3ccccc3C3=NCCN23)c(Cl)n1.Cl` [Example 2-156]: the melting point was 287 °C (dec.). Further, the IC50 in series [1] lay within 100 to 500 nM.

The compound `Cc1nc(N)ccc1C(=O)NC1=Nc2ccccc2C2=NCCN12` [Example 2-157] came in with a melting point of 146 to 148 °C. In addition, the IC50 in series [1] fell in the range of 100 to 500 nM.

`Cc1cc(C(=O)NC2=Nc3ccccc3C3=NCCN23)cnc1N` [Example 2-159] had a melting point of 246 to 247 °C. In series [1], the IC50 was 100 to 500 nM.

Consider `Cc1c(C(=O)NC2=Nc3ccccc3C3=NCCN23)cnc(N)c1C.Cl` [Example 2-161], for which the melting point was 298 °C (dec.). Moreover, the IC50 in series [1] was in the range of 100 to 500 nM.

Turning to `Nc1cccc(C(=O)NC2=Nc3ccccc3C3=NCCN23)c1.O=C(O)C(F)(F)F` [Example 2-162], the melting point was 191 °C (dec.). In addition, in series [1], the IC50 was in the range of 100 to 500 nM.

Take `Nc1ccc(C(=O)NC2=Nc3ccccc3C3=NCCN23)cc1.O=C(O)C(F)(F)F` [Example 2-163]: the melting point was 232 °C (dec.). The IC50 in series [1] lay within 100 to 500 nM.

Turning to `Cl.Cn1cnc2cc(C(=O)NC3=Nc4ccccc4C4=NCCN34)ccc21` [Example 2-167], the melting point was 333 °C (dec.). Moreover, the IC50 in series [1] lay in the range of 100 to 500 nM.

On to `Cl.O=C(NC1=Nc2ccccc2C2=NCCN12)c1cccc2[nH]ccc12` [Example 2-169], for which the melting point is 295 °C (dec.). For the same compound, the IC50 in series [1] lay in the range of 100 to 500 nM.

In the case of `Cc1nc2ccccn2c1C(=O)NC1=Nc2ccccc2C2=NCCN12` [Example 2-170], the melting point fell in the range of 277 to 279 °C. Further, the IC50 in series [1] lay within 100 to 500 nM.
